Reference: PMC7700029, “Repurposing Napabucasin as an Antimicrobial Agent against Oral Streptococcal Biofilms” (BioMed Research International, 2020)
Converted amounts (≈) assume the structure as drawn.

Experiments:
[1] = tested on: oral streptococcal multispecies biofilms; assay: Multispecies biofilm composition by FISH and qPCR; format: cell-based, S. mutans, S. gordonii, S. sanguinis; settings: 62.5 μg/mL NAP, 5 min three times per day for 3 days; for total amount of streptococci: 0.2% CHX
Method: The multispecies biofilms were cultivated in accordance with a previous study. Overnight cultures of S. mutans, S. gordonii, and S. sanguinis were simultaneously inoculated (inoculum ratio = 1 : 1 : 1). The chemotaxis chamber μ-Slide, which has extremely low values of birefringence and autofluorescence, was used for bacterial culture and confocal microscopy. Bacterial suspensions (1 × 10^5CFU/mL for each strain) were mixed in 300 μL BHI containing 1% sucrose (BHIS) in the μ-Slide (8 wells, 80826, Ibidi) at 37°C for 24 h. Then, biofilms were exposed to PBS, 62.5 μg/mL NAP, and 0.2% CHX for 3 days (5 min, three times per day). This short-term repeated treatment was to simulate the daily exposure to the mouth rinses. For fluorescent in situ hybridization imaging, biofilms were fixed in 4% paraformaldehyde overnight and investigated by species-specific probes. The multispecies biofilms were imaged with a confocal laser scanning microscope (FV1000, Olympus, Tokyo, Japan). Total DNA of biofilms were isolated and purified using a TIANamp Bacteria DNA kit (TIANGEN, Beijing, China). The purity and concentration of DNA were detected with a NanoDrop 2000 spectrophotometer (Thermo Scientific, Waltham, MA, USA). The extracts were stored at -20°C until use. TaqMan real-time polymerase chain reaction (Life Technologies, Carlsbad, CA, USA) was used to quantify the absolute number of S. mutans, S. gordonii, and S. sanguinis as described by the manufacturer (Takara, Dalian, China).

[2] = tested on: human oral keratinocytes (HOK); assay: In vitro cytotoxicity/viability, CCK-8; format: cell-based; settings: Keratinocyte, 5 min, 5 min exposure, read-out: IC50 (cell viability)
Method: (§1) Cell viability was evaluated by using the Cell Counting Kit-8 (CCK-8, Dojindo, Kumamoto, Japan) assay as described by Park et al.. Test cells were human oral keratinocytes (HOK), human gingival epithelia (HGE), and macrophage RAW264.7 (RAW264.7). Cells were plated in 96-well plates at 10,000 cells/well in minimum essential medium with the Dulbecco's modified Eagle's medium (DMEM) supplemented with 10% fetal bovine serum and 1% antibiotic-antimycotic. The cells were grown in a humidified environment with 5% CO2 at 37°C for 24 hours. Considering the short exposure duration of oral cells to mouth rinses, cells were treated with medium containing NAP (0.12 to 62.5 μg/mL) and positive control CHX for 5 min [27–29]. Then, the cells were washed with PBS twice and were added with the fresh medium (200 μL/well). Each well was added with 10 μL of CCK-8, and after incubation in the CO2 incubator for 1 h to 1.5 h, absorbance was measured at the wavelength of 450 nm. The cell viability was calculated according to the following formula: (%) = (A450oftestgroup − A450ofblankcontrol)/(A450ofnegativecontrol − A450ofblankcontrol) × 100%.

macrophage RAW264.7 = assay: In vitro cytotoxicity/viability, CCK-8; format: cell-based; settings: Mus musculus, 5 min, RAW264.7, 5 min exposure, read-out: IC50 (cell viability)
Method: as §1

[3] = tested on: human gingival epithelial cells (HGE); assay: In vitro cytotoxicity/viability, CCK-8; format: cell-based; settings: Epithelial cell, 5 min, 5 min exposure
Method: as §1

S. sanguinis biofilm [4] = assay: Reduction of 1-day-developed biofilm, crystal violet (MBRC); format: cell-based, Streptococcus sanguinis; settings: S. sanguinis 1-day-developed biofilm, 24 h, 90% or more reduction
Method: (§2) The effect of NAP on the 1-day-developed biofilm was examined by the minimum biofilm reduction concentration (MBRC). S. mutans, S. gordonii, or S. sanguinis (1 × 10^7CFU/mL, 200 μL/well) in BHIS was added to a 96-well polystyrene tissue culture plate. After anaerobic incubation at 37°C for 24 h, the supernatants were removed and washed with PBS three times without disrupting the integrity of biofilms. Fresh BHIS containing NAP ranging from 0.12 to 125 μg/mL were added to each well and incubated at 37°C for 24 h. The negative control was biofilms in BHIS without NAP. The biofilm was fixed, air-dried, stained, and quantified as described above.

[5] = tested on: Streptococcus gordonii DL1; assay: Bacterial susceptibility test, microdilution in BHI (MIC/MBC); format: cell-based; settings: S. gordonii, planktonic cells
Method: (§3) Streptococcus mutans UA159, Streptococcus gordonii DL1, and Streptococcus sanguinis ATCC 10556 were kindly provided by the State Key Laboratory of Oral Diseases (Sichuan University, Chengdu, China). S. mutans, S. gordonii, and S. sanguinis were routinely grown at 37°C under aerobic condition (5% CO2) in brain heart infusion broth (BHI; Difco, Sparks, MD). Inoculum for the experiment was adjusted to 1 × 10^8CFU/mL for S. mutans, S. gordonii, and S. sanguinis based on the OD600 nm versus CFU/mL graph of each bacterium and further 1 : 100 diluted in the growth culture. When needed, medium was supplemented with 1% sucrose (designated BHIS). The minimum inhibitory concentration (MIC) and minimum bactericidal concentration (MBC) of NAP against S. mutans, S. gordonii, and S. sanguinis were determined by a microdilution method in BHI, as described previously. The concentrations of NAP ranged from 0.97 to 1000 μg/mL (twofold dilutions). BHI broth containing equivalent DMSO (1% to 0.001%, v/v) was used as a solvent control and ran simultaneously to control for the possible growth inhibition caused by the added DMSO. CHX was used as a positive control, cell control (test bacteria and BHI broth) was used as a negative control, and BHI broth was used as a blank control.

[6] = tested on: Streptococcus sanguinis ATCC 10556; assay: as above; format: cell-based; settings: ATCC10556, S. sanguinis, planktonic cells
Method: as §3

[7] = tested on: Streptococcus mutans UA159; assay: as above; format: cell-based; settings: S. mutans, planktonic cells
Method: as §3

S. mutans biofilm [8] = assay: Reduction of 1-day-developed biofilm, crystal violet (MBRC); format: cell-based, Streptococcus mutans; settings: S. mutans 1-day-developed biofilm, 24 h, 90% or more reduction
Method: as §2

S. gordonii biofilm [9] = assay: Biofilm formation inhibition, crystal violet (MBIC); format: cell-based, Streptococcus gordonii; settings: 24 h, 90% or more inhibition of biofilm formation
Method: (§4) The minimum biofilm inhibition concentration (MBIC) was used to evaluate the effect of NAP on biofilm formation. S. mutans, S. gordonii, or S. sanguinis (1 × 10^7CFU/mL, 10 μL/well) were grown in BHIS with twofold serial dilution of NAP (200 μL/well) ranging from 0.12 to 125 μg/mL at 37°C for 24 h. A parallel study was also performed with BHIS as a negative control. Then, the supernatants from the wells were decanted, and the adherent biofilm was washed three times with PBS to remove the planktonic cells. Fixed with methanol for 15 min and air-dried at room temperature, the biofilm was stained with 0.1% (wt/vol) crystal violet (Sigma) for 5 min, rinsed with deionized water until blank control wells were colorless, and added 200 μL of 95% ethanol to each crystal violet-stained well. Subsequently, the plate was rocked 30 min at room temperature, and the absorbance at 595 nm was recorded. The percentage of inhibition was calculated using the equation: (A595ofnegativecontrol − A595ofthetestgroup)/A595ofnegativecontrol × 100%.

[10] = tested on: oral streptococcal multispecies biofilms; assay: Multispecies biofilm imaging (dead/live, EPS staining, CLSM); format: cell-based, S. mutans, S. gordonii, S. sanguinis; settings: 5 min three times per day for 3 days; for structural integrity of multispecies biofilms: 0.2% CHX
Method: The multispecies biofilms were cultivated in accordance with a previous study. Overnight cultures of S. mutans, S. gordonii, and S. sanguinis were simultaneously inoculated (inoculum ratio = 1 : 1 : 1). The chemotaxis chamber μ-Slide, which has extremely low values of birefringence and autofluorescence, was used for bacterial culture and confocal microscopy. Bacterial suspensions (1 × 10^5CFU/mL for each strain) were mixed in 300 μL BHI containing 1% sucrose (BHIS) in the μ-Slide (8 wells, 80826, Ibidi) at 37°C for 24 h. Then, biofilms were exposed to PBS, 62.5 μg/mL NAP, and 0.2% CHX for 3 days (5 min, three times per day). This short-term repeated treatment was to simulate the daily exposure to the mouth rinses.
For dead/live imaging, biofilms were stained with fluorescent LIVE/DEAD BacLight Bacterial Viability stain (Molecular Probes, Invitrogen) containing SYTO 9 and propidium iodide according to the manufacturer's instructions. The labeled biofilms were imaged with a DMIRE2 confocal laser scanning microscope (Leica, Wetzlar, Germany) equipped with a 60x oil immersion objective lens.
For extracellular polysaccharide (EPS) staining, the bacterial cell and the EPS were stained with SYTO 9 (Molecular Probes) and Alexa Fluor 647-labeled dextran conjugate (Molecular Probes) as described previously. The biofilms were captured with a Leica DMIRE2 confocal laser scanning microscope as in live/dead imaging.
All three-dimensional reconstructions of the biofilms were performed with Imaris 7.0.0 (Bitplane, Zürich, Switzerland). The quantification of the dead/live and EPS/bacteria volume ratio was, respectively, performed with Image-Pro Plus (Media Cybernetics, Silver Spring, MD, USA) and COMSTAT (http://www.image-analysis.dk).

[11] = tested on: multispecies biofilms on human enamel slabs; assay: Biofilm-induced demineralization of human enamel slabs, transverse microradiography; format: cell-based, S. mutans, S. gordonii, S. sanguinis; settings: 62.5 μg/mL NAP, 0.2% CHX, 5 min three times per day for 5 days; compared to negative control
Description: Human teeth free of white spots, cracks, and other defects that had been extracted for periodontal or impacted reasons were collected under a protocol approved by the Ethics Committee of West China Hospital of Stomatology, Sichuan University (WCHSIRB-D-2018-107). Crowns were separated from roots and cut into four sections measuring 5mm × 5mm × 2mm by using a diamond-coated saw (Struers Minitom; Struers, Copenhagen, Denmark) under continuous water cooling. The enamel slabs were embedded in polymethylmethacrylate and painted with two layers of acid-resistant nail varnish, leaving a 4mm × 4mm window of the exposed enamel surface. Then, these surfaces were polished progressively with waterproof silicon carbide abrasive papers (800–4000 grit; Struers, Copenhagen, Denmark) and were ultrasonically cleaned in a deionized water for 5 min to remove the residual abrasives. All slabs were sterilized with ethylene oxide. The 30 specimens were randomly divided into 3 groups: PBS, 62.5 μg/mL NAP, and 0.2% CHX. Enamel slabs obtained from the same tooth were evenly distributed to each test group.
Overnight cultures of S. mutans, S. gordonii, and S. sanguinis (1 × 10^7CFU/mL) were simultaneously inoculated on enamel slabs in a 24-well cell culture plate with BHIS at 37°C. Slabs with biofilms were then exposed to PBS, 62.5 μg/mL NAP, and 0.2% CHX for 5 days (5 min, three times per day). The 5-day demineralization duration was in accordance with previous studies. All specimens were then washed in PBS and refreshed with BHIS after every exposure. After 5 days of treatment, specimens were taken out and rinsed with PBS to remove the biofilms. Then, specimens were cut again and polished with a hand plane—parallel from both sides with waterproof silicon carbide abrasive papers (800–4000 grit; Struers, Copenhagen, Denmark) to thickness ranging around […]. X-ray films of experimental lesions were acquired with an X-ray generator (Softex, Japan) equipped with a microradiography camera and then were further examined using a Zeiss AXIO Imager A2 microscope (Carl Zeiss, Germany). Quantitative data was acquired by a calibrated analysis system TMR2006 (Inspektor Research Systems BV, Netherlands). Data are obtained as the mean of 10 separate samples.

S. sanguinis biofilm [12] = assay: Biofilm formation inhibition, crystal violet (MBIC); format: cell-based, Streptococcus sanguinis; settings: 24 h, 90% or more inhibition of biofilm formation
Method: as §4

S. mutans biofilm [13] = assay: as above; format: cell-based, Streptococcus mutans; settings: 24 h, 90% or more inhibition of biofilm formation
Method: as §4

S. gordonii biofilm [14] = assay: Reduction of 1-day-developed biofilm, crystal violet (MBRC); format: cell-based, Streptococcus gordonii; settings: S. gordonii 1-day-developed biofilm, 24 h, 90% or more reduction
Method: as §2

[15] = parameters: method as in PMID 28573435, PMID 31241371; settings: orally 240 mg twice a day, patients with advanced malignancies; cited from earlier work
[16] = 62.5 μg/mL NAP compared to 0.2% CHX

## [H]/N=C(\N/C(=N/[H])NCCCCCCNC(=N)NC(=N)Nc1ccc(Cl)cc1)Nc1ccc(Cl)cc1 [CHX, Chlorhexidine]
[1]
  total amount of streptococci: significantly reduced the total amount of streptococci
[2]
  IC50: 31.2 to 62.5 µg/mL (≈ 61.8 to 124 µM)
Macrophage RAW264.7
  IC50: 31.2 to 62.5 µg/mL (≈ 61.8 to 124 µM)
[3]
  IC50: 31.2 to 62.5 µg/mL (≈ 61.8 to 124 µM)
S. sanguinis biofilm [4]
  MBRC: 3.91 µg/mL
[5]
  MBC: 7.81 µg/mL (≈ 15.5 µM)
  MIC: 3.91 µg/mL (≈ 7.74 µM)
[6]
  MBC: 3.91 µg/mL (≈ 7.74 µM)
  MIC: 0.49 µg/mL (≈ 0.969 µM)
[7]
  MBC: 7.81 µg/mL (≈ 15.5 µM)
  MIC: 1.95 µg/mL (≈ 3.86 µM)
S. mutans biofilm [8]
  MBRC: 62.50 µg/mL
S. gordonii biofilm [9]
  MBIC: 3.91 µg/mL
[10]; 62.5 μg/mL NAP
  structural integrity of multispecies biofilms: disrupted the structural integrity of multispecies biofilms significantly
[11]
  depth of biofilm-induced lesion: significantly reduced
  mineral loss of enamel: significantly reduced
S. sanguinis biofilm [12]
  MBIC: 1.95 µg/mL
S. mutans biofilm [13]
  MBIC: 0.98 µg/mL
S. gordonii biofilm [14]
  MBRC: 15.63 µg/mL

## CC(=O)c1cc2c(o1)C(=O)c1ccccc1C2=O [NAP, 2-acetylfuro-1,4-naphathoquinone]
[1]
  total amount of streptococci: significantly reduced the total amount of streptococci
  multispecies biofilm composition: inhibited S. mutans and S. sanguinis but increased the proportion of the commensal S. gordonii
[2]
  IC50: > 62.5 µg/mL
Macrophage RAW264.7
  IC50: > 62.5 µg/mL
[3]
  IC50: > 62.5 µg/mL
S. sanguinis biofilm [4]
  MBRC: 3.91 µg/mL
[5]
  MBC: 0.98 µg/mL (≈ 4.08 µM)
  MIC: 0.49 µg/mL (≈ 2.04 µM)
[6]
  MBC: 15.6 µg/mL (≈ 65.1 µM)
  MIC: 0.49 µg/mL (≈ 2.04 µM)
[7]
  MBC: 15.6 µg/mL (≈ 65.1 µM)
  MIC: 3.91 µg/mL (≈ 16.3 µM)
S. mutans biofilm [8]
  MBRC: 62.50 µg/mL
S. gordonii biofilm [9]
  MBIC: 0.49 µg/mL
[10]; [16]
  EPS/bacteria ratio: equivalent
  dead/live cell ratio: equivalent dead/live cell ratio
[10]; 62.5 μg/mL NAP vs 0.2% CHX
  bacteria within the biofilms (volume): further reduced the bacteria within the oral streptococcal biofilms as compared to CHX
[10]; 62.5 μg/mL NAP
  structural integrity of multispecies biofilms: disrupted the structural integrity of multispecies biofilms significantly
  EPS production in the biofilm: significantly inhibit EPS production
[11]
  depth of biofilm-induced lesion: significantly reduced
  mineral loss of enamel: significantly reduced
[15]
  adverse events: generally mild
S. sanguinis biofilm [12]
  MBIC: 1.95 µg/mL
S. mutans biofilm [13]
  MBIC: 1.95 µg/mL
S. gordonii biofilm [14]
  MBRC: 15.63 µg/mL
